Experimental data from patent US20100137313A1 (ASTRAZENECA AB, priority 2008, published 2010).

Biological target: S. pneumoniae Topoisomerase IV ATPase (ParE) (Streptococcus pneumoniae serotype 4, UniProt Q59961)
Experiment: S. pneumoniae Topoisomerase IV ATPase inhibition
Assay type: biochemical
Settings: values marked * are an average of two or more data points, read-out: % Inh (13 μM) of S. pneumoniae Topoisomerase IV ATPase
Summary of the method: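 Phosphate-release ATPase assay: 1.25 nM ParE, 160 μM ATP, DNA-stimulated. Quench with malachite green/molybdate in 1 M HCl, read 650 nm; IC50 from 10-point dose series.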

Sequence of S. pneumoniae Topoisomerase IV ATPase (ParE) (Q59961 whole entry): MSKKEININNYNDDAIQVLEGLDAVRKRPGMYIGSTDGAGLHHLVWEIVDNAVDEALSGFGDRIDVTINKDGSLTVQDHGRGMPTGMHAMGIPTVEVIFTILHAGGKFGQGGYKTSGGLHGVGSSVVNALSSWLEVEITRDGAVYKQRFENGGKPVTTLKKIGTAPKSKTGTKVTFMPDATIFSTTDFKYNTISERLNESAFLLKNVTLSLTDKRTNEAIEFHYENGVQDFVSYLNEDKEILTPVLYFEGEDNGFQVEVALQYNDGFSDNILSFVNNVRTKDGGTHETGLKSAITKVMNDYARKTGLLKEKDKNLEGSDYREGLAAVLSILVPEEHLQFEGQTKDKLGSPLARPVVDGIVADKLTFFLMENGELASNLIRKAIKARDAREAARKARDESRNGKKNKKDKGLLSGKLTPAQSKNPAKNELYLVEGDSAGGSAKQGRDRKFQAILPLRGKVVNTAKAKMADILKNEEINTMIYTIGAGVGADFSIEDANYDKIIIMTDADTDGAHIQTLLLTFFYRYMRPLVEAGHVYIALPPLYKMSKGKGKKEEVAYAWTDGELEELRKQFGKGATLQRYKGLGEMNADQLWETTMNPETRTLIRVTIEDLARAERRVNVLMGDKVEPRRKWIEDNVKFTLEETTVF

SMILES	inhibition at 13 µM [%]
COc1cc(C#N)cc(Nc2ncc(-c3cnc(OC)c(C(=O)O)c3)c(-n3ccc(C(F)(F)F)n3)n2)c1 [Example 736, 5-{2-[(3-cyano-5-methoxyphenyl)amino]-4-[3-(trifluoromethyl)-1H-pyrazol-1-yl]pyrimidin-5-yl}-2-methoxypyridine-3-carboxylic acid]	100
COc1cc(C#N)cc(Nc2ncc(-c3cnc(OC)c(C(=O)O)c3)c(-n3nc(C(F)(F)F)cc3C)n2)c1 [Example 737, 5-{2-[(3-cyano-5-methoxyphenyl)amino]-4-[5-methyl-3-(trifluoromethyl)-1H-pyrazol-1-yl]pyrimidin-5-yl}-2-methoxypyridine-3-carboxylic acid]	97
COc1ncc(-c2cnc(Nc3cccc(Cl)c3)nc2-n2ccc(C(F)(F)F)n2)cc1C(=O)O [Example 742, 5-{2-[(3-chlorophenyl)amino]-4-[3-(trifluoromethyl)-1H-pyrazol-1-yl]pyrimidin-5-yl}-2-methoxypyridine-3-carboxylic acid]	100
COc1ncc(-c2cnc(Nc3cccc(Cl)c3)nc2-n2nc(C(F)(F)F)cc2C)cc1C(=O)O [Example 743, 5-{2-[(3-chlorophenyl)amino]-4-[5-methyl-3-(trifluoromethyl)-1H-pyrazol-1-yl]pyrimidin-5-yl}-2-methoxypyridine-3-carboxylic acid]	94
Cc1cc(C(F)(F)F)nn1-c1nc(Nc2cccc(Cl)c2)ncc1-c1cncc(C(=O)O)c1 [Example 744, 5-{2-[(3-chlorophenyl)amino]-4-[5-methyl-3-(trifluoromethyl)-1H-pyrazol-1-yl]pyrimidin-5-yl}pyridine-3-carboxylic acid]	100
COc1ncc(-c2cnc(Nc3cc(C)cc(F)c3)nc2-n2ccc(C(F)(F)F)n2)cc1C(=O)O [Example 754, 5-{2-[(3-fluoro-5-methylphenyl)-amino]-4-[3-(trifluoromethyl)-1H-pyrazol-1-yl]pyrimidin-5-yl}-2-methoxypyridine-3-carboxylic acid]	100
COc1ncc(-c2cnc(Nc3cc(C)cc(F)c3)nc2-n2nc(C(F)(F)F)cc2C)cc1C(=O)O [Example 755, 5-{2-[(3-fluoro-5-methylphenyl)amino]-4-[5-methyl-3-(trifluoromethyl)-1H-pyrazol-1-yl]pyrimidin-5-yl}-2-methoxypyridine-3-carboxylic acid]	100
COc1ncc(-c2cnc(Nc3cc(C)ccc3F)nc2-n2ccc(C(F)(F)F)n2)cc1C(=O)O [Example 756, 5-{2-[(2-fluoro-5-methylphenyl)amino]-4-[3-(trifluoromethyl)-1H-pyrazol-1-yl]pyrimidin-5-yl}-2-methoxypyridine-3-carboxylic acid]	56
COc1ncc(-c2cnc(Nc3cc(C)ccc3F)nc2-n2nc(C(F)(F)F)cc2C)cc1C(=O)O [Example 757, 5-{2-[(2-fluoro-5-methylphenyl)amino]-4-[5-methyl-3-(trifluoromethyl)-1H-pyrazol-01-yl]pyrimidin-5-yl}-2-methoxypyridine-3-carboxylic acid]	19
COc1cc(Cl)cc(Nc2ncc(-c3cnc(OC)c(C(=O)O)c3)c(-n3ccc(C(F)(F)F)n3)n2)c1 [Example 758, 5-{2-[(3-chloro-5-methoxyphenyl)amino]-4-[3-(trifluoromethyl)-1H-pyrazol-1-yl]pyrimidin-5-yl}-2-methoxypyridine-3-carboxylic acid]	98
COc1cc(Cl)cc(Nc2ncc(-c3cnc(OC)c(C(=O)O)c3)c(-n3nc(C(F)(F)F)cc3C)n2)c1 [Example 759, 5-{2-[(3-chloro-5-methoxyphenyl)amino]-4-[5-methyl-3-(trifluoromethyl)-1H-pyrazol-1-yl]pyrimidin-5-yl}-2-methoxypyridine-3-carboxylic acid]	100
COc1cc(C)cc(Nc2ncc(-c3cnc(OC)c(C(=O)O)c3)c(-n3ccc(C(F)(F)F)n3)n2)c1 [Example 760]	100
COc1cc(C)cc(Nc2ncc(-c3cnc(OC)c(C(=O)O)c3)c(-n3nc(C(F)(F)F)cc3C)n2)c1 [Example 761, 2-methoxy-5-{2-[(3-methoxy-5-methylphenyl)amino]-4-[5-methyl-3-(trifluoromethyl)-1H-pyrazol-1-yl]pyrimidin-5-yl}pyridine-3-carboxylic acid]	100
Cc1cc(F)cc(Nc2ncc(-c3cncc(C(=O)O)c3)c(-n3ccc(C(F)(F)F)n3)n2)c1 [Example 770, 5-{2-[(3-fluoro-5-methylphenyl)-amino]-4-[3-(trifluoromethyl)-1H-pyrazol-1-yl]pyrimidin-5-yl}pyridine-3-carboxylic acid]	100
Cc1cc(F)cc(Nc2ncc(-c3cncc(C(=O)O)c3)c(-n3nc(C(F)(F)F)cc3C)n2)c1 [Example 771, 5-{2-[(3-fluoro-5-methylphenyl)-amino]-4-[5-methyl-3-(trifluoromethyl)-1H-pyrazol-1-yl]pyrimidin-5-yl}pyridine-3-carboxylic acid]	100
Cc1ccc(F)c(Nc2ncc(-c3cncc(C(=O)O)c3)c(-n3ccc(C(F)(F)F)n3)n2)c1 [Example 772, 5-{2-[(2-fluoro-5-methylphenyl)-amino]-4-[3-(trifluoromethyl)-1H-pyrazol-1-yl]pyrimidin-5-yl}pyridine-3-carboxylic acid]	81
Cc1ccc(F)c(Nc2ncc(-c3cncc(C(=O)O)c3)c(-n3nc(C(F)(F)F)cc3C)n2)c1 [Example 773, 5-{2-[(2-fluoro-5-methylphenyl)-amino]-4-[5-methyl-3-(trifluoromethyl)-1H-pyrazol-1-yl]pyrimidin-5-yl}pyridine-3-carboxylic acid]	55
COc1cc(Cl)cc(Nc2ncc(-c3cncc(C(=O)O)c3)c(-n3ccc(C(F)(F)F)n3)n2)c1 [Example 774, 5-{2-[(3-chloro-5-methoxyphenyl)-amino]-4-[3-(trifluoromethyl)-1H-pyrazol-1-yl]pyrimidin-5-yl}pyridine-3-carboxylic acid]	100
COc1cc(Cl)cc(Nc2ncc(-c3cncc(C(=O)O)c3)c(-n3nc(C(F)(F)F)cc3C)n2)c1 [Example 775, 5-{2-[(3-chloro-5-methoxyphenyl)-amino]-4-[5-methyl-3-(trifluoromethyl)-1H-pyrazol-1-yl]pyrimidin-5-yl}pyridine-3-carboxylic acid]	100
COc1cc(C)cc(Nc2ncc(-c3cncc(C(=O)O)c3)c(-n3ccc(C(F)(F)F)n3)n2)c1 [Example 776, 5-{2-[(3-methoxy-5-methylphenyl)amino]-4-[3-(trifluoromethyl)-1H-pyrazol-1-yl]pyrimidin-5-yl}pyridine-3-carboxylic acid]	100
COc1cc(C)cc(Nc2ncc(-c3cncc(C(=O)O)c3)c(-n3nc(C(F)(F)F)cc3C)n2)c1 [Example 777, 5-{2-[(3-methoxy-5-methylphenyl)amino]-4-[5-methyl-3-(trifluoromethyl)-1H-pyrazol-1-yl]pyrimidin-5-yl}pyridine-3-carboxylic acid]	100
COc1ncc(-c2cnc(Nc3cc(C)cc(C#N)c3)nc2-n2ccc(C(F)(F)F)n2)cc1C(=O)O [Example 780, 5-{2-[(3-cyano-5-methylphenyl)amino]-4-[3-(trifluoromethyl)-1H-pyrazol-1-yl]pyrimidin-5-yl}-2-methoxypyridine-3-carboxylic acid]	100
COc1ncc(-c2cnc(Nc3cc(C)cc(C#N)c3)nc2-n2nc(C(F)(F)F)cc2C)cc1C(=O)O [Example 781, 5-{2-[(3-cyano-5-methylphenyl)amino]-4-[5-methyl-3-(trifluoromethyl)-1H-pyrazol-1-yl]pyrimidin-5-yl}-2-methoxypyridine-3-carboxylic acid]	99
Cc1cc(C#N)cc(Nc2ncc(-c3cncc(C(=O)O)c3)c(-n3ccc(C(F)(F)F)n3)n2)c1 [Example 784, 5-{2-[(3-cyano-5-methylphenyl)amino]-4-[3-(trifluoromethyl)-1H-pyrazol-1-yl]pyrimidin-5-yl}pyridine-3-carboxylic acid]	70
Cc1cc(C#N)cc(Nc2ncc(-c3cncc(C(=O)O)c3)c(-n3nc(C(F)(F)F)cc3C)n2)c1 [Example 785, 5-{2-[(3-cyano-5-methylphenyl)amino]-4-[5-methyl-3-(trifluoromethyl)-1H-pyrazol-1-yl]pyrimidin-5-yl}pyridine-3-carboxylic acid]	100
Cc1cc(C(F)(F)F)nn1-c1nc(Nc2ccc(F)c(Cl)c2)ncc1-c1cnc(OC2CCN(C)C2)c(C(=O)O)c1 (stereo not shown) [Example 787, 5-{2-[(3-chloro-4-fluorophenyl)amino]-4-[5-methyl-3-(trifluoromethyl)-1H-pyrazol-1-yl]pyrimidin-5-yl}-2-[(1-methylpyrrolidin-3-yl)oxy]pyridine-3-carboxylic acid]	97
CN1CCC(Oc2ncc(-c3cnc(Nc4ccc(F)c(Cl)c4)nc3-n3ccc(C(F)(F)F)n3)cc2C(=O)O)C1 (stereo not shown) [Example 789, 5-{2-[(3-chloro-4-fluorophenyl)amino]-4-[3-(trifluoromethyl)-1H-pyrazol-1-yl]pyrimidin-5-yl}-2-[(1-methylpyrrolidin-3-yl)oxy]pyridine-3-carboxylic acid]	99
Cc1cc(C(F)(F)F)nn1-c1nc(Nc2ccc(F)c(Cl)c2)ncc1-c1cnc(OC(C)c2ccncc2)c(C(=O)O)c1 (stereo not shown) [Example 791, 5-{2-[(3-chloro-4-fluorophenyl)amino]-4-[5-methyl-3-(trifluoromethyl)-1H-pyrazol-1-yl]pyrimidin-5-yl}-2-[1-(pyridin-4-yl)ethoxy]pyridine-3-carboxylic acid]	97
